Experimental data taken from patent US20100311133A1, “ELECTRODE, ENZYME SENSOR USING THE ELECTRODE, FUEL BATTERY, ELECTRONIC DEVICE, AND METHOD FOR DECOMPOSING POLYOL” (SONY CORPORATION, priority 2007, published 2010).

How the values were obtained:
[1] = tested on: Aldehyde reductase; assay: Amount of NADH generated from polyol substrates by aldehyde reductase (Example 3); type: biochemical, Candida; settings: substrate 100 mmol/L; NAD+ 1.3 mg/mL; enzyme 2.5 μ/mL; 25° C.; relative to alcohol dehydrogenase with ethylene glycol = 100
Description: (§1) To be more specific, an alcohol dehydrogenase and an aldehyde reductase were allow to act with each substrate and the amount of NADH generated was comparatively investigated.
(§2) Individual relative values are indicated as relative values by assuming the amount of NADH generated from action of the alcohol dehydrogenase with ethylene glycol to be 100.

[2] = biological target: T1, Alcohol dehydrogenase (Saccharomyces cerevisiae, UniProt P00330); assay: Amount of NADH generated from polyol substrates by alcohol dehydrogenase (Example 3); type: biochemical, yeast; settings: substrate 100 mmol/L; NAD+ 1.3 mg/mL; enzyme 2.5 μ/mL; 25° C.; relative to alcohol dehydrogenase with ethylene glycol = 100
T1 construct: purchased Wako Pure Chemical Industries, Ltd
T1 sequence (P00330 1-348): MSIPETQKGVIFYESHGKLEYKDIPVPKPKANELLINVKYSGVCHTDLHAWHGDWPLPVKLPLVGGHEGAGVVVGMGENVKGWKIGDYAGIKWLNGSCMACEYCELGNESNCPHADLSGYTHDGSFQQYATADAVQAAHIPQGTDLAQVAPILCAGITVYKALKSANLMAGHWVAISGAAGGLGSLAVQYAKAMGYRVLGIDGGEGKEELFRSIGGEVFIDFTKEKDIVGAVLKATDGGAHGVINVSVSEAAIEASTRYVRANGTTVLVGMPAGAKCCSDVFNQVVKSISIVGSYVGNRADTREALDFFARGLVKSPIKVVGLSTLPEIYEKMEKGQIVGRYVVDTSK
Description: as §1, §2

| SMILES | Amount of reduced coenzyme generated (relative value %), Aldehyde reductase [1] [%] | Amount of reduced coenzyme generated (relative value %), Alcohol dehydrogenase [2] [%] |
| --- | --- | --- |
| OCCO [Ethylene glycol, ethylene glycol] | 4.0 | 100 |
| OCC(O)CO [Glycerol, glycerol] | 7.0 | 0.6 |
| OC[C@@H](O)[C@@H](O)[C@H](O)[C@@H](O)CO [Sorbitol, sorbitol] | 100 | 0.7 |

Second part, the compound after the results:

| Amount of reduced coenzyme generated (relative value %), Aldehyde reductase [1] [%] | Amount of reduced coenzyme generated (relative value %), Alcohol dehydrogenase [2] [%] | SMILES |
| --- | --- | --- |
| 34 | 0.4 | OC[C@@H](O)[C@H](O)[C@@H](O)CO [Xylitol, xylitol] |
| 50 | 6.0 | OC[C@@H](O)[C@@H](O)CO [Erythritol, erythritol] |
